{"source": "patent US12662688B2", "about": "“Site-selective deuteration of amino acids through dual protein catalysis” (Wisconsin Alumni Research Foundation, priority 2022, dated 2026)", "key": {"DsaD/E lysates": {"tested_on": "DsaD/E lysates", "assay": "Analytical-scale H/D exchange with pre-dialyzed DsaD and DsaE lysates", "format": "biochemical, Streptomyces scopuliridis", "conditions": "lysates pre-dialyzed into D2O—Na3PO4 buffer pD 8.4, 99.9% D", "method": "FIG. 6. Deuteration of L-Leu under conditions with minimal H2O contamination (99.9% D) using DsaD and DsaE lysates that were pre-dialyzed in 50 mM D2O—Na3PO4 (pD 8.4). Reactions performed using the described procedure for analytical-scale H/D exchange. Results are reported as the average of 3 trials.\n(§1) General procedure analytical scale deuteration reactions: α/β deuteration reactions were performed as follows. A 1 mL Eppendorf tube was charged with amino acid (10-20 mM final concentration), Na3PO4 buffer pD 8.4 (50 mM final concentration), PLP (100 μM final concentration), purified enzymes or appropriate lysate and D2O and to the appropriate final volume (typically 50 μL). Reactions were carried out at 37° C. for 8 h and quenched by the addition of 3 volumes of acetonitrile. Precipitated biomolecules were pelleted by centrifugation (16,000×g, 10 min) and samples were processed as described below.\nExchange of DsaD and DsaE into D2O—Na3PO4 buffer system: When necessary, clarified lysates and purified proteins were exchanged into a D2O-based buffer system containing 50 mM Na3PO4 (−) using a Slide-A-Lyzer MINI dialysis device (ThermoFisher) with a 3 KDa cutoff. A maximum of 500 μL of lysate or protein was added to the device and exchanged 3 times into the D2O buffer at 4° C. before setting up reactions."}, "[1]": {"biological_target": "T1, DsaE with native E. coli BCATs (Escherichia coli, UniProt P0AB80, E236D)", "T1 construct": "DsaE can utilize native BCATs present at biological concentrations (without overexpression) to perform H/D exchange; made in house; host or cells: Clarified lysate of E. coli BL21(DE3) overexpressing DsaE; the BCAT is endogenous to the host", "T1 sequence (P0AB80 2-309 E236D)": "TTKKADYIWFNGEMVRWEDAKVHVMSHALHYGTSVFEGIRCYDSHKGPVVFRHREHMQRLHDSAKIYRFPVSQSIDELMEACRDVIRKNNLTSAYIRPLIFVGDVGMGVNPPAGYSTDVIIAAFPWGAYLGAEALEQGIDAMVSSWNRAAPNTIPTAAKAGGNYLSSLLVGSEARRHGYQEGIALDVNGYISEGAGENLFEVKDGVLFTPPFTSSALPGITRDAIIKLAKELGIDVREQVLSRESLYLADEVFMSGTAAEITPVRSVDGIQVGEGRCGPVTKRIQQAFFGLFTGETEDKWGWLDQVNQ", "T1 sequence (as listed by the source, stated change not applied)": "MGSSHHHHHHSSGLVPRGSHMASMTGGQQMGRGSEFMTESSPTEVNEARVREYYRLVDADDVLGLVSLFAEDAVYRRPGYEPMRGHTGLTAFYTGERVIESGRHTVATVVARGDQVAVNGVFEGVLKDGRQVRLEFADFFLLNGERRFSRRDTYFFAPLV", "assay": "Analytical-scale H/D exchange with DsaE lysate only", "format": "biochemical", "conditions": "5% v/v DsaE lysate, no DsaD", "method": "(§2) FIG. 7. Deuteration of L-Leu using only DsaE lysate (5% v/v) with minimal H2O contamination (99.9% D). Reactions were performed using the described procedure for analytical-scale H/D exchange. Results are reported as the average of 3 trials.\n(§3) In another version, DsaE operates with a BCAT enzyme other than DsaD to effect a Cα/Cβ-exchange. For example, DsaE clarified cell lysates (CCLs) can achieve Cα and Cβ-deuteration without the addition of the aminotransferase DsaD. Instead of relying on DsaD as a partner for catalysis, DsaE promiscuously interacts with native branched-chain amino acid aminotransferases (BCATs) expressed by E. coli (SEQ ID NO: 2) for primary metabolism. No overexpression of BCAT is necessary to induce this activity. We simply overexpressed partner protein DsaE and generated a clarified cell lysate from the resulting E. coli. […] The reaction is as follows:\nas §1, with “Precipitated biomolecules were pelleted by centrifugation (16,000×g, 10 min) and samples were processed as described below.” left out"}, "[2]": {"biological_target": "T2, DsaE with native E. coli BCATs (Escherichia coli, UniProt P0AB80)", "T2 construct": "DsaE can utilize native BCATs present at biological concentrations (without overexpression) to perform H/D exchange; made in house; host or cells: Clarified lysate of E. coli BL21(DE3) overexpressing DsaE; the BCAT is endogenous to the host", "T2 sequence (P0AB80 2-309 E236D)": "as the sequence (P0AB80 2-309 E236D) above", "T2 sequence (as listed by the source, change not shown)": "as the sequence (as listed by the source, stated change not applied) above", "assay": "Analytical-scale H/D exchange with DsaE lysate only", "format": "biochemical", "conditions": "5% v/v DsaE lysate, no DsaD", "method": "as §2, §3\nas §1, with “Precipitated biomolecules were pelleted by centrifugation (16,000×g, 10 min) and samples were processed as described below.” left out"}, "DsaD-MfnH protein pair": {"tested_on": "DsaD-MfnH protein pair", "assay": "Analytical-scale H/D exchange with purified DsaD and MfnH", "format": "biochemical, Streptomyces scopuliridis; Streptomyces drozdowiczii", "conditions": "5 μM DsaD, 50 μM MfnH (1:10 DsaD:MfnH)", "method": "FIG. 4. Deuteration of L-Leu using purified DsaD (5 μM) and MfnH (50 μM) using the described procedure for analytical-scale H/D exchange. Results are reported as the average of 2 trials.\nas §1\nIn the original report by Li et al. describing DsaE, a homologous enzyme with 42% sequence identity, MfnH, was disclosed.^29 This homolog could operate with DsaD to catalyze Cβ-epimerization of Ile. Here, we test the ability of MfnH to productively catalyze H/D exchange reactions. We performed reactions with purified MfnH, DsaD (1:10 DsaD:MfnH), and L-Leu under the conditions described for DsaD/E-catalyzed reactions (FIG. 4). […] We also attempted isolation of MfnO, the native BCAT partner of MfnH, but produced only apo-enzyme."}}, "data": [{"smiles": "CC(C)C[C@H](N)C(=O)O", "note": "[Leu, leucine]", "values": [{"measurement": "D-incorporation at Cα", "setting": "DsaD/E lysates", "result": "> 99", "unit": "%"}, {"measurement": "D-incorporation at Cβ", "setting": "DsaD/E lysates", "result": 98, "unit": "%"}, {"measurement": "labeling at Cα", "setting": "[1]", "result": "> 95", "unit": "%"}, {"measurement": "deuterium incorporation at Cβ", "setting": "[2]", "result": 70, "unit": "%"}, {"measurement": "deuterium labeling at Cβ", "setting": "DsaD-MfnH protein pair", "result": 58, "unit": "%"}, {"measurement": "exchange at Cα", "setting": "DsaD-MfnH protein pair", "result": 93, "unit": "%"}]}]}
